One block for each compound: values may come before it.
Tests used:
[1] = test system: ERBB2-amplified cell lines; experiment: Cell viability assay, ERBB2-amplified versus non-amplified cell lines; assay type: cell-based; settings: MANOVA
Procedure: The effect of compounds on cell viability was determined by measuring intracellular ATP content as an indirect readout of cell number ([15]). […] A vehicle-treated control (0.4% (v/v) DMSO) was included in quadruplicate on the same assay plate to determine maximum cell growth. The final DMSO concentration was 0.4% (v/v) in all wells. After incubation for another 72 hours, ATP content in each well was measured as described previously. […] When the cell doubling deviated > 2-fold from the historic doubling as determined in multiple independent experiments, the experiment was invalidated and repeated. […] IC50 values of kinase inhibitors were calculated by fitting a 4-parameter logistic curve to the percentage viability values using IDBS XLfit5 (IDBS, Guildford, United Kingdom). […] . For some compounds, biphasic curves were measured in one or more cell lines, indicating a dual mechanism of action in these cell lines ([29]). […] For all bioinformatic analyses, ^10log(IC50 [nmol/L]) values were used.
Cell lines were classified as having an alteration in a specific cancer gene if at least one allele was altered by point mutation, insertion, deletion, fusion, or amplification. The mutation, fusion, and amplification status of the cell lines was retrieved from the COSMIC cell lines project (version 80) ([23]), Cancer Cell Line Encyclopedia (CCLE), DepMap (version 22Q1) ([16]), and Cellosaurus ([30]) databases. In order to ensure that genomic alterations included in subsequent analyses were relevant to cancer growth and drug response, mutations were only included when they were either reported as a hotspot mutation in Cancer Hotspots ([31]), described as oncogenic and gain-of-function in OncoKB or JAX CKB, or described as pathogenic in the literature. […] J82 was therefore annotated as FGFR3 wild-type.
All statistical analyses were performed in R (version 4.1.2), unless otherwise indicated. A two-sided Mann-Whitney test was performed for two-group comparisons. […] . Multivariate analysis of variance (MANOVA) was performed for multi-group comparison.

MEK1 = MEK1 (Homo sapiens, UniProt Q02750); experiment: Enzyme-linked immunosorbent assay (ELISA) of enzymatic activity, IC50; assay type: biochemical
MEK2 = MEK2 (Homo sapiens, UniProt P36507); experiment: as above; assay type: biochemical
ALK = target: T1, ALK (Homo sapiens, UniProt Q9UM73); experiment: Biochemical kinase assay (MSA), IC50
T1 construct: purchased Carna Biosciences (only by web pointer)

MET-altered cell lines = settings: MANOVA
[2] = test system: EGFR double mutants p.ex19del/T790M and p.L858R/T790M; experiment: Biochemical kinase assays with EGFR mutants
[3] = test system: NCI-H1975 (EGFR p.L858R + p.T790M); experiment: Cell viability assay; assay type: cell-based
ALK-altered cell lines = experiment: Cell viability assay, ALK-altered versus ALK wild-type cell lines; assay type: cell-based; settings: MANOVA
FLT3 = target: T2, FLT3 (Homo sapiens, UniProt P36888); experiment: Biochemical kinase assay (MSA), IC50; settings: biochemical assays
T2 construct: purchased Carna Biosciences (only by web pointer)

[4] = test system: FLT3 ITD-mutant cell lines MOLM-13 and MV4-11; experiment: Cell viability assay; assay type: cell-based
ROS = target: T3, ROS (Homo sapiens, UniProt P08922); experiment: Biochemical kinase assay (MSA), IC50; settings: biochemical assays
T3 construct: purchased Carna Biosciences (only by web pointer)

FGFR1 = target: T4, FGFR1 (Homo sapiens, UniProt P11362); experiment: Biochemical kinase assay (MSA), IC50
T4 construct: purchased Carna Biosciences (only by web pointer)

FGFR2 = target: T5, FGFR2 (Homo sapiens, UniProt P21802); experiment: Biochemical kinase assay (MSA), IC50
T5 construct: purchased Carna Biosciences (only by web pointer)

FGFR3 = target: T6, FGFR3 (Homo sapiens, UniProt P22607); experiment: Biochemical kinase assay (MSA), IC50
T6 construct: purchased Carna Biosciences (only by web pointer)

FGFR4 = target: T7, FGFR4 (Homo sapiens, UniProt P22455); experiment: Biochemical kinase assay (MSA), IC50
T7 construct: purchased Carna Biosciences (only by web pointer)

[5] = test system: RET-altered cell lines (LC-2/ad, TT); experiment: Cell viability assay, RET-altered versus RET wild-type cell lines; assay type: cell-based; settings: for lower IC50 in RET-altered versus wild-type cell lines: MANOVA
RET = target: T8, RET (Homo sapiens, UniProt P07949); experiment: Biochemical kinase assay (MSA), IC50; settings: biochemical assays
T8 construct: purchased Carna Biosciences (only by web pointer)

EGFR = target: T9, EGFR (Homo sapiens, UniProt P00533); experiment: Biochemical kinase assay (MSA), IC50
T9 construct: purchased Carna Biosciences (only by web pointer)

HER2 = target: T10, HER2 (Homo sapiens, UniProt P04626); experiment: Biochemical kinase assay (MSA), IC50
T10 construct: purchased Carna Biosciences (only by web pointer)

HER4 = target: T11, HER4 (Homo sapiens, UniProt Q15303); experiment: Biochemical kinase assay (MSA), IC50
T11 construct: purchased Carna Biosciences (only by web pointer)

BRK = target: T12, BRK (Homo sapiens, UniProt Q13882); experiment: Biochemical kinase assay (MSA), IC50
T12 construct: purchased Carna Biosciences (only by web pointer)

T6 sequence (P22607 23-806): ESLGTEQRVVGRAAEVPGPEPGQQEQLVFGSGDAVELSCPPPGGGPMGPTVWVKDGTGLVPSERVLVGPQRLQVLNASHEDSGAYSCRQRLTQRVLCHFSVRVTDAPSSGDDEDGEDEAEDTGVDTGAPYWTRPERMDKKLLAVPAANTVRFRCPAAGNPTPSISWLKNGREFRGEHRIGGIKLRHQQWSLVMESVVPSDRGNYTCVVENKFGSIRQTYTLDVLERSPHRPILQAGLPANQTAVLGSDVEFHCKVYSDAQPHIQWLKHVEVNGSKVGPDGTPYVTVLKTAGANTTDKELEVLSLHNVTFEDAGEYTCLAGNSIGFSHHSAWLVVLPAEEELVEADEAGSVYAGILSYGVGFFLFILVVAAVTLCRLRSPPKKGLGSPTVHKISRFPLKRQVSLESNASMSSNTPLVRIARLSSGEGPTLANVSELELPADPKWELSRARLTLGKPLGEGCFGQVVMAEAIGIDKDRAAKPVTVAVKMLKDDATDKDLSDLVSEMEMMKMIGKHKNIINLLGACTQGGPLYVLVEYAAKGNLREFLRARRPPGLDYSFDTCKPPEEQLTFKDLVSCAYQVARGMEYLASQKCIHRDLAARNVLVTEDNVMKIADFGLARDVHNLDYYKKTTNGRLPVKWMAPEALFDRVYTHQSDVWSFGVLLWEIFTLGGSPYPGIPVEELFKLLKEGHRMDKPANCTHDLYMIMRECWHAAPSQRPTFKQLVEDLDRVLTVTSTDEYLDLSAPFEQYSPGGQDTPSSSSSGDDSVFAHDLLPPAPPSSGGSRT
T7 sequence (P22455 22-802): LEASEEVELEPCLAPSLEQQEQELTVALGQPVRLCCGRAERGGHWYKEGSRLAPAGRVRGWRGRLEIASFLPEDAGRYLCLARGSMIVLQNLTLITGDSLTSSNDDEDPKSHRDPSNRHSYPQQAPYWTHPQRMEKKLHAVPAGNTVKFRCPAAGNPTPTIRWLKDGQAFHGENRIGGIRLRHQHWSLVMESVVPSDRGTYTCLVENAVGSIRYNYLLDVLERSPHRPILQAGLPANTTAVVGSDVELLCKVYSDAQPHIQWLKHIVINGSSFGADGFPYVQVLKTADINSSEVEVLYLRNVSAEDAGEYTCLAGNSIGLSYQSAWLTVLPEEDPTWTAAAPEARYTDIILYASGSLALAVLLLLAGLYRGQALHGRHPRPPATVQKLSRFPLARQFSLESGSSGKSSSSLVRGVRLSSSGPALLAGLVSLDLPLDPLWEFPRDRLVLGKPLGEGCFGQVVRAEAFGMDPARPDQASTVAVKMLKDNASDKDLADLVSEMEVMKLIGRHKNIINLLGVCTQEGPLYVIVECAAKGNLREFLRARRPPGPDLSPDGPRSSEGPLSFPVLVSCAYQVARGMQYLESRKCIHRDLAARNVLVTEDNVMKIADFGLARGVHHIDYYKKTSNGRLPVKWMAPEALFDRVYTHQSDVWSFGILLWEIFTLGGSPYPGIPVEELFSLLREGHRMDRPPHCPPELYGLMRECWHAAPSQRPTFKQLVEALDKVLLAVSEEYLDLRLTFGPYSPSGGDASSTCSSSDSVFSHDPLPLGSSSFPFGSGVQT
T4 sequence (P11362 22-822): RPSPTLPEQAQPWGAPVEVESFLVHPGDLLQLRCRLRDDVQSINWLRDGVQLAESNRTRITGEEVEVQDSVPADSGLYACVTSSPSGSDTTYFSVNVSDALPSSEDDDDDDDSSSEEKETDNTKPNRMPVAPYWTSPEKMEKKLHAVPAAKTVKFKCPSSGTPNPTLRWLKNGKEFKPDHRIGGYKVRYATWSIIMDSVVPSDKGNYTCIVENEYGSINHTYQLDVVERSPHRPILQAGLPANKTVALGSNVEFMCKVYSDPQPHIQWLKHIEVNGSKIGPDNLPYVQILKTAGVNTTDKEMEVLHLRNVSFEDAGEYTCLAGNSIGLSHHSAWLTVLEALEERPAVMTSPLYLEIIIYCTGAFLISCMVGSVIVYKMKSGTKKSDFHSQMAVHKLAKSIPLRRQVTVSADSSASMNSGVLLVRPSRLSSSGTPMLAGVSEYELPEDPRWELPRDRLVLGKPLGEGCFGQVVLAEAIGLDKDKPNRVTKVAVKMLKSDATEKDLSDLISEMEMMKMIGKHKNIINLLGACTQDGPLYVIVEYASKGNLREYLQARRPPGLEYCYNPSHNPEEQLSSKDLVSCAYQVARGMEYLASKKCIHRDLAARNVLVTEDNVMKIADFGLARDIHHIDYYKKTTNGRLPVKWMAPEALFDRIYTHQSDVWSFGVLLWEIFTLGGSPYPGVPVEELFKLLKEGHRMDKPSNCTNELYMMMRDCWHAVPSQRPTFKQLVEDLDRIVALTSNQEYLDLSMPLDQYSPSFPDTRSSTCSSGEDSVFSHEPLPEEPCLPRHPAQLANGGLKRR
T5 sequence (P21802 22-821): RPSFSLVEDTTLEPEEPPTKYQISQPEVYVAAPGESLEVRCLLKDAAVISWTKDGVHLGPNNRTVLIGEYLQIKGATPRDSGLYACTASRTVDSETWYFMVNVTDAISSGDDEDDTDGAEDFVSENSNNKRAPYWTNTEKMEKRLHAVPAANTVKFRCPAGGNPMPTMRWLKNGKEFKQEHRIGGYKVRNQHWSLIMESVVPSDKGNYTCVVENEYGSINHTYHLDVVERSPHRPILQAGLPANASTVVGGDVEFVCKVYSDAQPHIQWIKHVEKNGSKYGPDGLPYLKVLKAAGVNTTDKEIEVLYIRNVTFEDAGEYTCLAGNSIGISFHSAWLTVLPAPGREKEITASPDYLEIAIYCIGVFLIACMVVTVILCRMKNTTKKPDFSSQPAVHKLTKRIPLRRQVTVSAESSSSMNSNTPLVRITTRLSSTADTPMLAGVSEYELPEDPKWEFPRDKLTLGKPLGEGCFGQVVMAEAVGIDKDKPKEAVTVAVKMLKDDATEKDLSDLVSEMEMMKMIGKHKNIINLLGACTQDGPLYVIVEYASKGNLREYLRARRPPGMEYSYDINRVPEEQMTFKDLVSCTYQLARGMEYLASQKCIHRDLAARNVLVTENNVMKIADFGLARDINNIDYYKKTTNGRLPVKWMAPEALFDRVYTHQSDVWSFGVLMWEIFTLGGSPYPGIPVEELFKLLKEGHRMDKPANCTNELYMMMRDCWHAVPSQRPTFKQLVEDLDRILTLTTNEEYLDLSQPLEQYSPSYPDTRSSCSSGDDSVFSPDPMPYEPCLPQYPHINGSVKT
T1 sequence (Q9UM73 19-1620): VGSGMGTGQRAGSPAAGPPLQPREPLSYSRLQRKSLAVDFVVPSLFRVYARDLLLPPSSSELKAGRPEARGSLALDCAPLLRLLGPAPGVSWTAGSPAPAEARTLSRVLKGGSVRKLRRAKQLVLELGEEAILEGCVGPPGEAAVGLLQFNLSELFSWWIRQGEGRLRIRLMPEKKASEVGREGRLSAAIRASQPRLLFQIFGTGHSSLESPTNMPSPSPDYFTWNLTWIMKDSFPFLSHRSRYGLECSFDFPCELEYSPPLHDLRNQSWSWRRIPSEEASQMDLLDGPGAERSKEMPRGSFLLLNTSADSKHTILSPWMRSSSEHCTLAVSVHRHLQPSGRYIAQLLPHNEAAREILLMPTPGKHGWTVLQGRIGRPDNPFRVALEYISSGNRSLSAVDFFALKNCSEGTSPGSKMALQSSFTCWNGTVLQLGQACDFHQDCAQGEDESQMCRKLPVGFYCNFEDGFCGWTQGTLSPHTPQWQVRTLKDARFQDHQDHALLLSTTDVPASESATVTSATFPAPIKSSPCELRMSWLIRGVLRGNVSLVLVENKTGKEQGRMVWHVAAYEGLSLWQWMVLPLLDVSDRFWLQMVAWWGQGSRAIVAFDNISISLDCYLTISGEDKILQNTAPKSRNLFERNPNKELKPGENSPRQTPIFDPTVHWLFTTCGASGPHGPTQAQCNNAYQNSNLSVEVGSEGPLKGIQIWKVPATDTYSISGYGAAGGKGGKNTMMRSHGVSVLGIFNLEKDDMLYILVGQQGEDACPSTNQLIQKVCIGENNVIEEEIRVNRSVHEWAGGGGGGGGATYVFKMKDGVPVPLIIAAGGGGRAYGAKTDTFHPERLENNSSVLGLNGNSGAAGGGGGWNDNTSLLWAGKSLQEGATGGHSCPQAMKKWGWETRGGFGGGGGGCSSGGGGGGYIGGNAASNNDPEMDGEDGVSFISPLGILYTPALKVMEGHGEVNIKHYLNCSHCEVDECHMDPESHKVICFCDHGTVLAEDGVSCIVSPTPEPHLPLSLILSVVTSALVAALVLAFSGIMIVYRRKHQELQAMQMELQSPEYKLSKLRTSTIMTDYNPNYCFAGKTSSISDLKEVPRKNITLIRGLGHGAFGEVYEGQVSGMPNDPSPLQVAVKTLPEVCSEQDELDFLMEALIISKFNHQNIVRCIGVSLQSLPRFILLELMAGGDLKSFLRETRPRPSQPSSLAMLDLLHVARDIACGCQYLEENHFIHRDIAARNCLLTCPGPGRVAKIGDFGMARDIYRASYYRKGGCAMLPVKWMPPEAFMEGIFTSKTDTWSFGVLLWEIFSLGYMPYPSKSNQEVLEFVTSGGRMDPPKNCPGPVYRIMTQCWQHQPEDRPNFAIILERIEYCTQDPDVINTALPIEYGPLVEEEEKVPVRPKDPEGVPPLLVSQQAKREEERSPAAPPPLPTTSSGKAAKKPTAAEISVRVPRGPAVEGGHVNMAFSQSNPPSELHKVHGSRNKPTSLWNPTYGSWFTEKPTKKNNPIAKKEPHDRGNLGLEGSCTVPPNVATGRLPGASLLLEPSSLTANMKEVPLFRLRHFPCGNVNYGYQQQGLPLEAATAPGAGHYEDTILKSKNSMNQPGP

SMILES: CC#CC(=O)N1CCC[C@H]1c1nc(-c2ccc(C(=O)Nc3ccccn3)cc2)c2c(N)nccn12 [acalabrutinib]
- preferential targeting of ERBB2-amplified versus non-amplified cell lines [1]: 44 fold

- IC50 (MEK1): 503 nM
- IC50 (MEK2): > 1000 nM
SMILES: Cn1cnc2c(F)c(Nc3ccc(Br)cc3F)c(C(=O)NOCCO)cc21 [binimetinib]

SMILES: CNC(=O)c1ccc(-c2cnc3ncc(Cc4ccc5ncccc5c4)n3n2)cc1F [capmatinib]
- IC50 (ALK): > 1000 nM
- higher potency in MET-altered compared to MET wild-type cell lines (MET-altered cell lines): over 10,000 fold

SMILES: O=C(c1ccc(F)c(F)c1Nc1ccc(I)cc1F)N1CC(O)([C@@H]2CCCCN2)C1 [cobimetinib]
- IC50 (MEK1): 61 nM
- IC50 (MEK2): 190 nM

SMILES: COc1cc2ncnc(Nc3ccc(F)c(Cl)c3)c2cc1NC(=O)/C=C/CN1CCCCC1 [dacomitinib]
- lower potency on double mutants (p.T790M plus sensitizing mutation) than on wild-type EGFR and sensitizing mutants [2]: 30 fold
- lower potency in NCI-H1975 compared to osimertinib [3]: 28 fold

SMILES: CN1CCN(c2ccc(C(=O)Nc3n[nH]c4ccc(Cc5cc(F)cc(F)c5)cc34)c(NC3CCOCC3)c2)CC1 [entrectinib]
- difference in IC50 between ALK-altered and ALK wild-type cell lines (ALK-altered cell lines): 12 fold

SMILES: CCc1nc(C(N)=O)c(Nc2ccc(N3CCC(N4CCN(C)CC4)CC3)c(OC)c2)nc1NC1CCOCC1 [gilteritinib]
- potency on FLT3 compared to midostaurin (FLT3): around eight-fold more potent
- difference in IC50 between ALK-altered and ALK wild-type cell lines (ALK-altered cell lines): 55 fold
- potency in the FLT3 ITD-mutant cell lines compared to midostaurin ([4]; on average): eight times more potent

SMILES: C=CC(=O)N1CCC[C@@H](n2nc(-c3ccc(Oc4ccccc4)cc3)c3c(N)ncnc32)C1 [ibrutinib]
- preferential targeting of ERBB2-amplified versus non-amplified cell lines [1]: 254 fold

- IC50 (ALK): > 1000 nM
- higher IC50 on ROS1 compared to TRKA-C (ROS): around 100 fold
- higher IC50 in MOLM-13 and MV4-11 compared to AP-1060 ([4]; cell viability): more than 1000 fold
SMILES: O=C(Nc1cnn2ccc(N3CCC[C@@H]3c3cc(F)ccc3F)nc12)N1CC[C@H](O)C1 [larotrectinib]

- IC50 (FGFR1): 11 nM
- IC50 (FGFR2): 27 nM
- IC50 (FGFR3): 50 nM
- IC50 (FGFR4): 183 nM
SMILES: CO[C@]1(C(=O)N[C@@H](C)c2ccc(-n3cc(F)cn3)nc2)CC[C@H](c2nc(C)cc(Nc3cc(C)[nH]n3)n2)CC1 [pralsetinib]
- lower IC50 in RET-altered versus wild-type cell lines [5]: 76 fold

- IC50 (FGFR1): 46 nM
- IC50 (FGFR2): 16 nM
- IC50 (FGFR3): 50 nM
- IC50 (FGFR4): 260 nM
- potency on RET compared to pralsetinib (RET): almost two-fold more potent
SMILES: COc1ccc(CN2C3CC2CN(c2ccc(-c4cc(OCC(C)(C)O)cn5ncc(C#N)c45)cn2)C3)cn1 [selpercatinib]
- lower IC50 in RET-altered versus wild-type cell lines [5]: 232 fold
- potency in the RET-altered cell lines compared to pralsetinib ([5]; cell viability): three-fold more potent

- IC50 (EGFR): 6.7 nM
- IC50 (HER2): 3.3 nM
- IC50 (HER4): 95 nM
SMILES: Cc1cc(Nc2ncnc3ccc(NC4=NC(C)(C)CO4)cc23)ccc1Oc1ccn2ncnc2c1 [tucatinib]

SMILES: C=CC(=O)N1CCC([C@@H]2CCNc3c(C(N)=O)c(-c4ccc(Oc5ccccc5)cc4)nn32)CC1 [zanubrutinib]
- IC50 (BRK): 18 nM
- preferential targeting of ERBB2-amplified versus non-amplified cell lines [1]: 45 fold

— publication PMC9516332 (Frontiers in Oncology, 2022)
